{
  "source": "patent US8309790B2",
  "about": "“Animal models for demyelination disorders” (University of Chicago, priority 2005, dated 2012)",
  "type_in_all_cases": "in vivo",
  "key": {"[1]": {"system": "corpus callosum of GFAP/tTA; TRE/IFN-γ; PERK+/− mice", "assay": "Remyelination after cuprizone in double transgenic mice on PERK+/+ or PERK+/− background", "conditions": "for remyelinated axons: 9 weeks", "from_the_text": "The involvement of the ER stress response in the reduction caused by IFN-γ to remyelinate lesions was examined in transgenic mice that were generated to be heterozygous for a loss of function mutation in pancreatic ER kinase (PERK) (Harding, et al., (2001) Mol Cell 7:1153-1163), and to be temporally regulated for expressing INF-γ in the CNS. TRE/IFN-γ mice were first crossed with PERK+/− mice (Harding, et al. (2001) Mol. Cell 7: 1153-1163) on the C57BL/6 background to generate mice the carry the PERK mutation, and the resulting progeny were crossed to GFAP/tTA mice to obtain transgenic mice that were heterozygous for the PERK mutation. The effect of PERK on remyelination in the presence or absence of INF-γ was evaluated as evaluated as a function of the level of myelination of oligodendrocytes in remyelinating lesions and the number of oligodendrocytes present in the remyelinating lesion.\nThe extent of remyelination was assessed as described in the previous examples in the corpus callosum of PERK+/+ and PERK+/− mice that were made to express INF-γ (DOX− PERK+/+ and DOX− PERK+/−), and in mice in which the expression of INF-γ was repressed (DOX+ PERK+/+ and DOX+ PERK+/−). Remyelination was determined by electron microscopy, and was related to the number of CC1 positive oligodendrocytes and the level of caspase-3 expression in the corpus callosum of all animals. The level of caspase-3 was determined by immunohistochemical methods using anti capsase antibody (active-casoase-3 antibody, 1:50; Cel Signaling Technology) and according to the method described in Example 1. Demyelination was induced in six-week-old GFAP/tTA; TRE/IFN-γ double transgenic mice on a PERK+/− background that had been maintained on doxycycline, by simultaneously treating the mice with 0.2% cuprizone and releasing them from doxycycline (DOX− PERK+/−). Remyelination was allowed to occur by withdrawing cuprizone at week 6."}, "[2]": {"system": "oligodendrocytes in adult mice", "assay": "IFN-γ expression in the CNS of adult double transgenic mice (released from doxycycline at 4 weeks of age)", "from_the_text": "Compared with the actively myelinating oligodendrocytes of young growing animals, oligodendrocytes in adult mice produce lower levels of membrane proteins and lipids, just enough to maintain homeostasis in the myelin structure (Morell, et al. (1999) Basic Neurochemistry: Molecular, Cellular, and Medical Aspects (Philadelphia, Pa.: Lippincott-Raven Publishers): 69-93). The ER of oligodendrocytes in adult animals may thus have more spare capacity to process increased protein load and as such may be less sensitive to disruptions of the protein secretory pathway. To examine this possibility, double transgenic mice were allowed to develop to maturity, at which time IFN-γ expression in the CNS was initiated."}, "[3]": {"system": "transgenic littermates overexpressing IFN-γ and/or SOCS1", "assay": "IFN-γ-overexpressing mice crossed to PLP/SOCS1 mice, clinical and histological evaluation at postnatal day 21", "conditions": "for oligodendrocyte density: corpus callosum, postnatal day 21; for G ratio (axon diameter/fiber diameter ratio): hypomyelination defined as G ratio>0.8", "from_the_text": "The transgenic mice MBP/IFN-γ and GFAP/tTA×TRE/IFN-γ (lines 184/110 and 184/67) that overexpress IFN-γ in the CNS have been described elsewhere (Corbin et al., 1996; Gao et al., 2000; Lin et al., 2004, 2005). Briefly, MBP/IFN-γ mice are transgenic animals in which IFN-γ expression is driven by the myelin basic protein (MBP) transcriptional control region (Gao et al., 2000). GFAP/tTA×TRE/IFN-γ are double-transgenic mice obtained by mating single-transgenic GFAP/tTA to single-transgenic TRE/IFN-γ (lines 110 and 67) mice. The two TRE/IFN-γ mouse lines, line 110 and line 67, used in the experiments produce different amounts of IFN-γ when crossed to GFA/tTA mice (184/110 and 184/67) (Lin e al., 2004, 2005). GFAP/tTA×TRE/IFN-γ is a tetracycline-off-inducible system in which the glial fibrilary acidic protein (GFAP) transcriptional control region drives the expression of tTA, which in turn, binds to the TRE (tet responsive element) and initiates the expression of IFN-γ. Administration of doxycycline suppresses tTA DNA binding and IFN-γ expression, and doxycycline removal allows for temporally-controlled induction of IFN-γ expression (Gao et al., 1999).\nIFN-γ-overexpressing mice were crossed to the PLP/SOCS1 mice in double-transgenic, (MBP/IFN-γ×PLP/SOCS1) and triple-transgenic (GFAP/tTA×TRE/IFN-γ×PLP/SOCS1) mating systems. MBP/IFN-γ×PLP/SOCS1 (172×PLP/SOCS1) mating was performed according to a standard mating protocol. The GFAP/tTA×TRE/IFN-γ×PLP/SOCS1 matings were performed in a 2-step mating process: GFAP/tTA mice were initially crossed to PLP/SOCS1 mice, and double-positive (184×PLP/SOCS1) offspring were then crossed to the TRE/IFN-γ lines 110 and 67, separately. This second mating step was performed according to the previously described “tet-off” protocol. Doxycycline 0.05 mg/ml (Sigma-Aldich) was added to the water of impregnated female mice until embryonic day 14, after which the animals were switched back to normal water, thereby allowing initiation of IFN-γ transcription, which peaks during the postnatal period (Lin et al., 2005).\nThe litters of the mating systems (F1 generation) were examined daily and sacrificed at postnatal day 21. Clinical evaluation included behavioral observation and challenged ladder walking to elicit tremor. Histological examination included quantitation of the number and density of oligodendrocytes and examination of the myelination patterns. Brain tissue was simultaneously obtained from each animal at the time of sacrifice to verify and measure the expression of IFN-γ and Flag-SOCS1 (see below). The clinical and histological findings were subsequently stratified according to genotype. All animal procedures were conducted in compliance with the National Institutes of Health Guide for Care and Use of Laboratory Animals and were approved by the Institutional Animal Care and Use Committee at The University of Chicago.\nOligodendrocyte cell density was assessed digitally using Axiovision software, at postnatal day 21, as previously described (Lin et al., 2005). The brains were sectioned sagittally through the corpus callosum dividing the brain in two symmetrical halves. Ten frozen sections from each half were prepared at 7 μm thickness, and numbered in the sequence of their preparation. The brains of three animals per study group were prepared in this fashion. Following the CC1 immunostaining the corresponding area of corpus callosum of each section was digitally selected and the corresponding total area obtained. CC1 cell counting was performed manually within the selected areas of each section, and the number of CC1 positive cells per square area (mm^2) calculated. The results were presented as mean±SD of CC1 (+) cells/mm^2 with n=3 animals per study group. […]"}},
  "data": [
    {"substance": "interferon-γ [IFN-γ]", "values": [
      {"measurement": "remyelinated axons", "setting": "[1]; DOX− PERK+/+ mice", "value": "31.1%±7.6%"},
      {"measurement": "number of CC1 positive oligodendrocytes", "setting": "[1]; DOX− PERK+/+ mice, corpus callosum, week 9", "value": "123.2±27.5 /0.04 mm^2"},
      {"measurement": "remyelinated axons", "setting": "[1]; DOX− PERK+/− mice, 3 weeks after cuprizone removed", "value": "15.6%±7.6%"},
      {"measurement": "CC1 positive oligodendrocytes in the corpus callosum", "setting": "[1]; DOX− PERK+/− mice, week 9", "value": "only a few oligodendrocytes were detected"},
      {"measurement": "number of oligodendrocytes positive for caspase-3, DOX− PERK+/− relative to DOX− PERK+/+", "setting": "[1]; week 9", "value": 2.3, "unit": "times"},
      {"measurement": "BIP and CHOP in the cerebellum", "setting": "[2]; 10-week-old mice released from doxycycline at 4 weeks of age", "value": "modest induction"},
      {"measurement": "oligodendrocyte survival", "setting": "[2]; adult mice, wild-type or PERK+/− background", "value": "did not affect"},
      {"measurement": "Incidence of tremor", "setting": "[3]; 172 × PLP/SOCS1 mating system, ten mice per group", "value": 0, "unit": "%"},
      {"measurement": "oligodendrocytes lost", "setting": "[3]; 184/67 × PLP/SOCS1 system", "value": "approximately 40%"},
      {"measurement": "percentage of unmyelinated axons", "setting": "[3]; 184/67 × PLP/SOCS1 system", "value": "57%±7"},
      {"measurement": "oligodendrocyte density", "setting": "[3]; 184/67 × PLP/SOCS1 system", "value": "79±9 CC1 (+) cells/mm^2"},
      {"measurement": "G ratio (axon diameter/fiber diameter ratio)", "setting": "[3]; 184/67 × PLP/SOCS1 system", "value": "0.95±0.04"},
      {"measurement": "oligodendrocytes lost", "setting": "[3]; 184/110 × PLP/SOCS1 system", "value": "approximately 20%"},
      {"measurement": "percentage of unmyelinated axons", "setting": "[3]; 184/110 × PLP/SOCS1 system", "value": "41%±6"},
      {"measurement": "oligodendrocyte density", "setting": "[3]; 184/110 × PLP/SOCS1 system", "value": "115±8 CC1 (+) cells/mm^2"},
      {"measurement": "G ratio (axon diameter/fiber diameter ratio)", "setting": "[3]; 184/110 × PLP/SOCS1 system", "value": "0.89±0.02"}
    ]}
  ]
}
